Measurements from US11839614B2, “Methods for treating or mitigating cardiotoxicity characterized by inhibition of adenosine A2 signaling and/or adenosine A2 receptor expression” (INTRA-CELLULAR THERAPIES, INC., priority 2018, dated 2023).

Experiments:
r-hPDE1A = target: T1, r-hPDE1A (Homo sapiens, UniProt P54750); experiment: Ki for full-length recombinant PDE1A; assay type: biochemical
T1 construct: Its Kis for full-length recombinant r-hPDE1A, 1B, and 1C are 34, 380, and 37 pM
Excerpt: (§1) Additional pharmaceuticals used in the following examples are dobutamine (Hospira Inc., Lake Forest, Ill.), esmolol HCl (Mylan, Rockford, Ill.), MRS1754 (Tocris Bioscience, Bristol, UK), and Hespan (6% Hetastarch in 0.9% NaCl B. Braun Medical Inc., Bethlehem, Pa.).

r-hPDE1C = target: T2, r-hPDE1C (Homo sapiens, UniProt Q14123); experiment: Ki for full-length recombinant PDE1C; assay type: biochemical
T2 construct: Its Kis for full-length recombinant r-hPDE1A, 1B, and 1C are 34, 380, and 37 pM
Excerpt: as §1

T2 sequence (Q14123 whole entry): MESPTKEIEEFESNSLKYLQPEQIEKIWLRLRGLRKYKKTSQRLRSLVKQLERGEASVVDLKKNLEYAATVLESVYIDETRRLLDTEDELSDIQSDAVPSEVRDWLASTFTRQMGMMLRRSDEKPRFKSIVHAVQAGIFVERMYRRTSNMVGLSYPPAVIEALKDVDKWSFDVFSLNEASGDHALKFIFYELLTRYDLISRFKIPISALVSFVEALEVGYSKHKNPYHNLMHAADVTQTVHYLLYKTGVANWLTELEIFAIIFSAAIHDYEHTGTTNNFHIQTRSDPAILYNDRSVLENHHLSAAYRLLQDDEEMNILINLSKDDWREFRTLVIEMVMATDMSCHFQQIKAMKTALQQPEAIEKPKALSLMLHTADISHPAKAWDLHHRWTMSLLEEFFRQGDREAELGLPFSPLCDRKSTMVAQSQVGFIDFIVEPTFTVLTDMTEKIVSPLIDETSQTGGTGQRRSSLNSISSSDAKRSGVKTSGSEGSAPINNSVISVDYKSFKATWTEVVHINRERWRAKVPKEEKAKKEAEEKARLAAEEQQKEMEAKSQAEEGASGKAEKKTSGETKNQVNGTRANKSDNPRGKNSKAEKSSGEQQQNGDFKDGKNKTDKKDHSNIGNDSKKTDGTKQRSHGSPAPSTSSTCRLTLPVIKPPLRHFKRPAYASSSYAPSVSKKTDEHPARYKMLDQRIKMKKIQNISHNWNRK
T1 sequence (P54750 whole entry): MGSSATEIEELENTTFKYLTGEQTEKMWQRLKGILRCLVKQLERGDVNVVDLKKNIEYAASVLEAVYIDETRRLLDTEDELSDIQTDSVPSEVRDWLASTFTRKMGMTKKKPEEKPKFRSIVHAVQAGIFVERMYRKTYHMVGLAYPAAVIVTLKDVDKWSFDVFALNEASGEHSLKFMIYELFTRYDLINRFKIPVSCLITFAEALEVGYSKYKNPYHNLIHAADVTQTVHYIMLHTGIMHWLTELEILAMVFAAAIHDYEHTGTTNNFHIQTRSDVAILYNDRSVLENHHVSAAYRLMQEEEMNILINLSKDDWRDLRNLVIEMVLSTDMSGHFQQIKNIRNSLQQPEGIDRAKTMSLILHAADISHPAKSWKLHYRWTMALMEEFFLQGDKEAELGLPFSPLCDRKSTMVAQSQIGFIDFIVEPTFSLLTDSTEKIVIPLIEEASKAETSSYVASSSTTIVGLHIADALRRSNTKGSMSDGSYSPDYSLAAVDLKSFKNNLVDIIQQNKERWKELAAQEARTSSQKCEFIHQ

CN1C(=O)c2c(nn(Cc3ccc(-c4cccc(F)n4)cc3)c2Nc2ccccc2)N2C1=N[C@@H]1CCC[C@@H]12 [Compound 1, (6aR,9aS)-2-(4-(6-fluoropyridin-2-yl)benzyl)-5-methyl-3-(phenyl-amino)-5,6a,7,8,9,9a-hexahydrocyclopenta-[4,5]imidazo[1,2-a]pyrazolo[4,3-e]pyrimidin-4-(2H)-one monophosphate]
Ki (r-hPDE1A): 34 pM
Ki (r-hPDE1C): 37 pM
